One test deals with HCV replicon 1A. As to the kind of experiment: Cell-based HCV Replicon Assay A, replicon 1A. The method in brief:
(§1)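 Replicon cells were seeded at 2000 cells/well with test compound in 10 serial dilutions, starting at 333.3 nM to 1.667 nM, in 0.5% DMSO and 5% FBS. On day 3, cells were washed and lysed, and replicon RNA was quantified by multiplex TaqMan RT-PCR normalised to cyclophilin.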

The subject of the next test is HCV replicon 1AY93H. The experiment in a line: Cell-based HCV Replicon Assay A, replicon 1AY93H. The method in brief:
as §1

The next test has as its system HCV replicon 2B. The experiment in a line: Cell-based HCV Replicon Assay A, replicon 2B. The method, boiled down: as §1
The next test deals with HCV replicon 1AQ30D. As to the kind of experiment: Cell-based HCV Replicon Assay B, replicon 1AQ30D. The settings on record: for IC50: Hepatitis C virus, read-out: 1A Q30D IC50 (nM), replicon 1AQ30D. The method, boiled down:
(§2)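 Replicon cells seeded in 5% FBS; compounds added 24 h later, then 3 days' incubation. Replicon RNA quantified by real-time RT-PCR with genotype-specific primers/probes (NS5B amplicon for 1b). EC50 = concentration raising CT by 1 over projected baseline.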

The subject of another test is HCV replicon 1B. The experiment in a line: Cell-based HCV Replicon Assay B, replicon 1B. The method, boiled down: as §2
Where [1] appears, read: read-out: 1A Y93H IC50, replicon 1AY93H.
Setting [2] is: read-out: 1A Q30D IC50, replicon 1AQ30D.
The mark [3] stands for this setting: replicon 1AY93H, read-out: 1A Y93H IC50.
[4] abbreviates: replicon 1AQ30D, read-out: 1A Q30D IC50.

This passage reports IC50 results from patent publication US9555038B2, “Heterocycle-substituted tetracyclic compounds and methods of use thereof for the treatment of viral diseases” (Merck Sharp & Dohme Corp., priority 2013, dated 2017).

pIC50: −log10 of the molar value. Like-named read-outs stand apart in the source and are kept apart here.

Take `COC(=O)NC(C(=O)N1[C@@H]2C[C@@H]2C[C@H]1c1ncc(-c2ccc3c(c2)cc2n3C(c3cnc(C4(C)CC4)s3)Oc3cc(-c4cnc([C@@H]5CCCN5C(=O)[C@@H](NC(=O)OC)C(C)C)[nH]4)cc(F)c3-2)[nH]1)C1CCOC(C)(C)C1` (single isomer, unassigned) [Compound 468]: the pIC50 was 11.48 with HCV replicon 1A; 9.81 with HCV replicon 1AY93H (setting [1]); 9.63 in the test on HCV replicon 2B (read-out: 2B IC50, replicon 2B); 8.91 in the test with HCV replicon 1AQ30D (setting [2]); 11.54 in the test on HCV replicon 1B.

In the case of `COC(=O)NC(C(=O)N1CCC[C@H]1c1ncc(-c2ccc3c(c2)cc2n3C(c3cnc(C4(C)CCCC4)s3)Oc3cc(-c4cnc([C@@H]5CCCN5C(=O)[C@@H](NC(=O)OC)C(C)C)[nH]4)cc(F)c3-2)[nH]1)C1C[C@@H](C)O[C@@H](C)C1` (single isomer, unassigned) [Compound 469], the pIC50 with HCV replicon 1A (Hepatitis C virus) was 11.52; in the test with HCV replicon 1AY93H (setting [1]), 11.70; with HCV replicon 2B (read-out: 2B IC50, replicon 2B), 11.30; with HCV replicon 1B (Hepatitis C virus) it was 11.47. Further, the IC50 in the test with HCV replicon 1AQ30D came to 0.019 nM.

Regarding `COC(=O)NC(C(=O)N1CCC[C@H]1c1ncc(-c2ccc3c(c2)cc2n3C(c3cnc(C4(C)CCCC4)s3)Oc3cc(-c4cnc([C@@H]5CCCN5C(=O)[C@@H](NC(=O)OC)C(C)C)[nH]4)cc(F)c3-2)[nH]1)C1CCOC(C)(C)C1` (single isomer, unassigned) [Compound 471], the pIC50 in the test on HCV replicon 1A was 11.55; in the test with HCV replicon 1AY93H (setting [1]), 11.52; in the test on HCV replicon 2B (read-out: 2B IC50, replicon 2B), 11.40; with HCV replicon 1AQ30D (setting [2]), 10.89; with HCV replicon 1B, 11.46.

In the case of `COC(=O)NC(C(=O)N1CCC[C@H]1c1ncc(-c2ccc3c(c2)cc2n3C(c3cnc(C4(C)CCCC4)s3)Oc3cc(-c4cnc([C@@H]5CCCN5C(=O)[C@@H](NC(=O)OC)C(C)C)[nH]4)cc(F)c3-2)[nH]1)C1CCOC(C)(C)C1` (single isomer, unassigned) [Compound 472], the pIC50 in the test on HCV replicon 1A was 11.68; in the test on HCV replicon 1AY93H (setting [1]), 9.26; in the test on HCV replicon 2B (read-out: 2B IC50, replicon 2B), 9.82; in the test with HCV replicon 1AQ30D (setting [2]), 8.57; in the test on HCV replicon 1B, 11.44.

On to `COC(=O)NC(C(=O)N1[C@@H]2C[C@@H]2C[C@H]1c1ncc(-c2ccc3c(c2)cc2n3C(c3cnc(C4(C)CCCC4)s3)Oc3cc(-c4cnc([C@@H]5CCCN5C(=O)[C@@H](NC(=O)OC)C(C)C)[nH]4)cc(F)c3-2)[nH]1)C1C[C@@H](C)O[C@@H](C)C1` (single isomer, unassigned) [Compound 473], for which the pIC50 was 11.59 in the test on HCV replicon 1A (Hepatitis C virus); 11.70 in the test on HCV replicon 1AY93H (setting [1]); 11.00 in the test with HCV replicon 2B (read-out: 2B IC50, replicon 2B); 11.55 in the test on HCV replicon 1B (Hepatitis C virus). The IC50 in the test on HCV replicon 1AQ30D was 0.011 nM.

Turning to `COC(=O)NC(C(=O)N1[C@@H]2C[C@@H]2C[C@H]1c1ncc(-c2ccc3c(c2)cc2n3C(c3cnc(C4(C)CCCC4)s3)Oc3cc(-c4cnc([C@@H]5CCCN5C(=O)[C@@H](NC(=O)OC)C(C)C)[nH]4)cc(F)c3-2)[nH]1)C1CCOC(C)(C)C1` (single isomer, unassigned) [Compound 475], the pIC50 in the test on HCV replicon 1A was 11.62; in the test on HCV replicon 1AY93H (setting [1]), 12.00; with HCV replicon 2B (read-out: 2B IC50, replicon 2B) it was 11.10; in the test on HCV replicon 1B (Hepatitis C virus), 11.41. Moreover, in the test on HCV replicon 1AQ30D, the IC50 is 0.016 nM.

Consider `COC(=O)NC(C(=O)N1[C@@H]2C[C@@H]2C[C@H]1c1ncc(-c2ccc3c(c2)cc2n3C(c3cnc(C4(C)CCCC4)s3)Oc3cc(-c4cnc([C@@H]5CCCN5C(=O)[C@@H](NC(=O)OC)C(C)C)[nH]4)cc(F)c3-2)[nH]1)C1CCOC(C)(C)C1` (single isomer, unassigned) [Compound 477], for which the negative logarithm of the IC50 (pIC50) was 11.49 in the test with HCV replicon 1A; 11.52 in the test on HCV replicon 1AY93H (setting [1]); 11.10 in the test on HCV replicon 2B (read-out: 2B IC50, replicon 2B); 11.05 with HCV replicon 1AQ30D (setting [2]); 11.43 in the test on HCV replicon 1B.

Take `CCCOCc1ncc(C2Oc3cc(-c4cnc([C@@H]5CCCN5C(=O)[C@@H](NC(=O)OC)C(C)C)[nH]4)cc(F)c3-c3cc4cc(-c5cnc([C@@H]6CCCN6C(=O)[C@@H](NC(=O)OC)C(C)C)[nH]5)ccc4n32)s1` (single isomer, unassigned) [Compound 492]: the pIC50 is 11.55 with HCV replicon 1A; 10.52 in the test on HCV replicon 1AY93H (setting [1]); 9.84 in the test with HCV replicon 2B (read-out: 2B IC50, replicon 2B); 9.27 with HCV replicon 1AQ30D (setting [2]); 11.54 in the test with HCV replicon 1B.

`CCCOCc1ncc(C2Oc3cc(-c4cnc([C@@H]5CCCN5C(=O)[C@@H](NC(=O)OC)C(C)C)[nH]4)cc(F)c3-c3cc4cc(-c5cnc([C@@H]6CCCN6C(=O)[C@@H](NC(=O)OC)C(C)C)[nH]5)ccc4n32)s1` (single isomer, unassigned) [Compound 499]: the pIC50 is 11.16 with HCV replicon 1A; 9.65 in the test with HCV replicon 1AY93H (setting [1]); 9.21 in the test on HCV replicon 2B (read-out: 2B IC50, replicon 2B); 8.96 in the test with HCV replicon 1AQ30D (setting [2]); 11.06 in the test with HCV replicon 1B.

As for `CCCOCc1ncc(C2Oc3cc(-c4cnc([C@@H]5CCCN5C(=O)[C@@H](NC(=O)OC)C(C)C)[nH]4)cc(F)c3-c3cc4cc(-c5cnc([C@@H]6CCCN6C(=O)[C@@H](NC(=O)OC)C(C)C)[nH]5)ccc4n32)s1` (single isomer, unassigned) [Compound 500], the negative-log IC50 (pIC50) is 10.65 with HCV replicon 1A; 8.11 in the test on HCV replicon 1AY93H (setting [1]); 8.78 in the test with HCV replicon 2B (read-out: 2B IC50, replicon 2B); 7.78 in the test with HCV replicon 1AQ30D (setting [2]); 10.74 in the test on HCV replicon 1B.

In the case of `COC(=O)N[C@H](C(=O)N1CCC[C@H]1c1ncc(-c2cc(F)c3c(c2)OC(c2cnc(C4(C)CC4)s2)n2c-3cc3cc(-c4cnc([C@@H]5CCCN5C(=O)[C@@H](NC(=O)OC)C(C)C)[nH]4)ccc32)[nH]1)C(C)C` (single isomer, unassigned) [Compound 511], the pIC50 with HCV replicon 1A (Hepatitis C virus) is 11.01; with HCV replicon 1AY93H (setting [1]), 10.31; in the test on HCV replicon 2B (read-out: 2B IC50, replicon 2B), 10.02; in the test on HCV replicon 1B, 11.06. Further, in the test on HCV replicon 1AQ30D, the IC50 came to 0.847 nM.

On to `COC(=O)N[C@H](C(=O)N1CCC[C@H]1c1ncc(-c2cc(F)c3c(c2)OC(c2cnc(CC(C)C)s2)n2c-3cc3cc(-c4cnc([C@@H]5CCCN5C(=O)[C@@H](NC(=O)OC)C(C)C)[nH]4)ccc32)[nH]1)C(C)C` (single isomer, unassigned) [Compound 514], for which the negative logarithm of the IC50 (pIC50) was 11.66 with HCV replicon 1A; 10.92 in the test on HCV replicon 1AY93H (setting [3]); 10.46 in the test with HCV replicon 2B (replicon 2B, read-out: 2B IC50); 9.76 in the test with HCV replicon 1AQ30D (setting [4]); 11.52 in the test with HCV replicon 1B.

For `COC(=O)N[C@H](C(=O)N1CCC[C@H]1c1ncc(-c2cc(F)c3c(c2)OC(c2cnc(C4CC4)s2)n2c-3cc3cc(-c4cnc([C@@H]5CC6(C)CC6N5C(=O)[C@@H](NC(=O)OC)C(C)C)[nH]4)ccc32)[nH]1)C(C)C` (single isomer, unassigned) [Compound 518], the pIC50 is 11.60 in the test with HCV replicon 1A; 10.80 in the test on HCV replicon 1AY93H (setting [3]); 10.82 in the test on HCV replicon 2B (replicon 2B, read-out: 2B IC50); 10.00 with HCV replicon 1AQ30D (setting [4]); 11.62 with HCV replicon 1B.

For `COC(=O)N[C@H](C(=O)N1CCC[C@H]1c1ncc(-c2cc(F)c3c(c2)OC(c2cnc(C4CC4)s2)n2c-3cc3cc(-c4cnc([C@@H]5CC6(C)CC6N5C(=O)[C@@H](NC(=O)OC)C(C)C)[nH]4)ccc32)[nH]1)C(C)C` (single isomer, unassigned) [Compound 519], the negative logarithm of the IC50 (pIC50) is 11.51 with HCV replicon 1A; 9.17 in the test on HCV replicon 1AY93H (setting [3]); 9.22 in the test with HCV replicon 2B (replicon 2B, read-out: 2B IC50); 9.02 with HCV replicon 1AQ30D (setting [4]); 11.68 in the test on HCV replicon 1B.

Take `COC(=O)N[C@H](C(=O)N1CCC[C@H]1c1ncc(-c2cc(F)c3c(c2)OC(c2cnc(CC(C)(C)C)s2)n2c-3cc3cc(-c4cnc([C@@H]5CCCN5C(=O)[C@@H](NC(=O)OC)C(C)C)[nH]4)ccc32)[nH]1)C(C)C` (single isomer, unassigned) [Compound 522]: the pIC50 in the test on HCV replicon 1A is 11.85; with HCV replicon 1AY93H (setting [3]) it was 10.96; in the test on HCV replicon 2B (replicon 2B, read-out: 2B IC50), 10.82; in the test with HCV replicon 1AQ30D (setting [4]), 9.79; with HCV replicon 1B it was 12.00.
